In patent publication US5338758A (Schering Corporation, priority 1992, dated 1994):
pIC50: −log10 of the molar value.

Key:
Solubility = format: physicochemical
[1] = system: PAF-Induced Human Platelet Aggregation; test: PAF-induced human platelet aggregation assay (in vitro PAF antagonism); format: cell-based; conditions: for pIC50: human platelet-rich plasma, 37° C., 2 min preincubation, PAF 1-5×10^-8 M, 0.1% DMSO, read-out: IC50 (PAF activity, inhibition of PAF-induced human platelet aggregation)
Method: Preparation of Platelet-Rich Plasma (PRP): Human blood (50 ml) is collected from healthy male donors. The blood is mixed with an anticoagulant solution (5 ml) containing sodium citrate (3.8%) and dextrose (2%). Blood is centrifuged at 200×g for 20 min. and the supernatant PRP is carefully transferred into a polypropylene tube. Platelet-poor-plasma (PPP) is prepared by centrifuging PRP at 800×g for 15 min. in a Beckman Microfuge B. PRP is used within 3 hours of drawing the blood.
Platelet Aggregation Assay: When an aggregating agent such as PAF is added to PRP, platelets aggregate. An aggregometer quantifies this aggregation by measuring light (infra-red) transmission through PRP and comparing it to transmission through PPP. The aggregation assays are performed using a dual-channel aggregometer (Model 440, Chrono-Log Corp., Havertown, Pa.). PRP (0.45 ml) in aggregometer curettes is continually stirred (37° C.). Solutions of test compounds in DMSO or vehicle alone (final concentration of DMSO=0.1% v/v) are added to the PRP, and, after incubation for 2 min., 10- 15 μl aliquots of PAF solution are added so as to achieve a final concentration of 1-5×10^-8 M. Incubations are continued until the increase in light transmission reaches a maximum (usually about 2 min). Values for inhibition are calculated by comparing maximal aggregation obtained in the absence and the presence of the compound. […]

PAF = conditions: disclosed in JP 03,216,197; cited from earlier work

Row | SMILES | solubility in acetone (Solubility) | solubility in chloroform (Solubility) | solubility in dichloromethane (Solubility) | solubility in dimethyl sulfoxide (Solubility) | solubility in ethyl acetate (Solubility) | solubility in hexane (Solubility) | solubility in methanol (Solubility) | solubility in petroleum ether (Solubility) | solubility in water (Solubility) | pIC50 [1] | PAF antagonistic properties (in words) [1] | PAF antagonist activity (in words) (PAF)
1 | C/C1=C\CCC2(C)O[C@H]2C(=O)C2=CC[C@H](C)[C@@](C)(CC1)[C@@H]2C=O (relative stereo) [Compound I] | partially soluble | soluble | soluble | soluble | partially soluble | insoluble | partially soluble | insoluble | insoluble | 5.16 | antagonistic properties | 
2 | CC1=CCCC2(C)OC2C(=O)C2=CC(O)C(C)C(C)(CC1)C2(C)O (centres unmarked) [Phomactin B, phomactin B] |  |  |  |  |  |  |  |  |  |  |  | PAF antagonist
3 | CC1=CCC2=CCC(C)C(C)(CCC(C)=CCC1)C2C (centres unmarked) [Compound IV] | soluble | soluble | soluble | partially soluble | partially soluble | partially soluble | partially soluble |  | insoluble | < 4.44 | antagonistic properties | 

More lines, main results first:

Row | solubility in acetone (Solubility) | solubility in chloroform (Solubility) | solubility in dichloromethane (Solubility) | solubility in dimethyl sulfoxide (Solubility) | solubility in ethyl acetate (Solubility) | solubility in hexane (Solubility) | solubility in methanol (Solubility) | solubility in petroleum ether (Solubility) | solubility in water (Solubility) | pIC50 [1] | SMILES | PAF antagonistic properties (in words) [1] | PAF antagonist activity (in words) (PAF)
4 | partially soluble | soluble | soluble | soluble | partially soluble | insoluble | partially soluble | insoluble | insoluble | 5.77 | CC1=CCCC2(C)OC2C2(O)OCC3C2=C(O)CC(C)C3(C)CC1 (centres unmarked) [II] | antagonistic properties | 
5 | partially soluble | soluble | soluble | soluble | partially soluble | insoluble | partially soluble | insoluble | insoluble | 5.90 | CC1=CCCC2(C)OC2C2(O)OCC3=C2C(O)CC(C)C3(C)CC1 (centres unmarked) [III] | antagonistic properties | 
